# Laboratory results published in US10487086.
# Details: from C=CCCC(=O)Nc1cc(NC(=O)OC)ccc1-c1nnc(Cl)cc1C(CC=C)NC(=O)OC(C)(C)C; rcm bond; 12-membered ring; Grubbs II (0.3 eq); DCM; 6.6 mM; 40.0 °C; 1.0 h
smiles,measurement,value
COC(=O)Nc1ccc2c(c1)NC(=O)CCC=CCC(NC(=O)OC(C)(C)C)c1cc(Cl)nnc1-2 (stereo not shown),"ring closure, isolated yield",56%
